Experimental data published in patent US11571426B2, “Compositions for preventing or treating lupus” (CHONG KUN DANG PHARMACEUTICAL CORP., priority 2017, dated 2023).

Experiments:
NZB/W F1 female mice [1] = assay: Weight recovery in SLE model mouse; type: in vivo
Protocol: (§1) 80 NZB/W F1 female mice (four weeks old) were purchased from Jackson Laboratory and maintained in an SPF breeding room with five mice per cage. Their weight and urine protein were measured at 24 weeks after birth (right before administration), and then all the animals except those having too much urine protein were divided into groups as shown in a table 2 below such that the urine protein and weight might be evenly distributed among the groups.
(§2) Then, the mice were administered as described in the table 2 once a day for about 19 weeks from 24 weeks after birth to 42 weeks after birth.

NZB/W F1 female mice [2] = assay: IgG and C3 depositions in glomerulus (fluorescence immunostaining); type: in vivo, mouse
Protocol: as §1, §2
To identify a therapeutic effect of the inventive pharmaceutical composition on kidney in the SLE disease model, a degree of IgG and C3 depositions in glomerulus was measured.
With regard to a remaining half of the left kidney collected during the autopsy performed in Example 9, a frozen tissue block was prepared for a frozen section by means of an OCT compound, and then IgG and C3 fluorescence immunostaining was performed by means of a method known in the technical field to which the present invention pertains.
Specifically, the frozen tissue was sectioned in a thickness of 4 μm, then fixed in cold acetone for five minutes, and then washed in phosphate buffered saline (PBS) twice for five minutes. To get rid of a non-specific reaction, a resulting tissue was blocked by means of the PBS solution with the addition of 1% bovine serum albumin and 0.05% tween-20 for 30 minutes, and then reacted at room temperature for one hour by means of FITC-conjugated goat anti-mouse IgG antibodies (1:200, AP308F, Merck Millipore) or FITC-conjugated goat anti-mouse C3 antibodies (1:100, Cappel 55500, MP Bio). After that, the resulting tissue was washed with the PBS for five minutes three times, then covered with a cover glass by means of a mounting medium including DAPI, and then observed by means of a confocal laser scanning microscopy (LSM 700, ZEISS).

Structure (SMILES): O=C(NO)c1ccc(CN(C(=O)N2CCOCC2)c2cccc(C(F)(F)F)c2)cc1 [Compound 374, N-(4-(hydroxycarbamoyl)benzyl)-N-(3-(trifluoromethyl)phenyl)morpholine-4-carboxamide]
- weight (NZB/W F1 female mice [1]; 10 mg/kg dosed group, from about 40 weeks): recovered to the same level as that of the positive control group
- weight recovery (NZB/W F1 female mice [1]; 30 and 50 mg/kg dosed groups, vs positive control): more excellent weight recovery effect
- level of C3 depositions in kidney (NZB/W F1 female mice [2]; 50 mg/kg dosed group): remarkably decreased
- level of IgG depositions in kidney (NZB/W F1 female mice [2]; 50 mg/kg dosed group): remarkably decreased
- level of C3 depositions in kidney (NZB/W F1 female mice [2]; experimental groups): decreased
- level of IgG depositions in kidney (NZB/W F1 female mice [2]; experimental groups): decreased
